Data: US9393288B2, “Methods of treating diseases associated with PPARγ” (The University of Vermont and State Agricultural College, priority 2012, dated 2016)

Columns and labels:
PPARγ target genes = experiment: PPARγ target gene expression (real-time qPCR) in adipose tissue, pial arteries and PA, NP Sprague Dawley rats; format: in vivo, rat; conditions: GW9662 co-treatment
Excerpt: (§1) Animals and Treatment Groups: All procedures were approved by the Institutional Animal Care and Use Committee and conducted in accordance with the National Institutes of Health Guide for the Care and Use of Laboratory Animals. Female virgin NP Sprague Dawley rats (250-300 g, 14-16 weeks, Charles River, Canada) were used for all experiments and housed in the University of Vermont Animal Care Facility. Animals were randomly selected and grouped as untreated (N=4), treated with recombinant human relaxin-2 (relaxin, 4 μg/hr; N=14), relaxin plus a specific PPARγ inhibitor GW9662 (10 mg/kg daily in food; N=8), or vehicle (20 mM sodium acetate; N=14) for 10 days through osmotic minipumps (Alzet 2ML2, Durect Corp., Cupertino, Calif., USA). GW9662 treatment was started 1 day before and for the duration of relaxin treatment to ensure PPARγ was inhibited. Animals were anesthetized with 3% isoflurane and minipumps implanted subcutaneously in the back of the neck. All animals received post-surgical analgesic (buprenorphine, 50 μg/kg, s.c.). Relaxin infusion was continuous for 10 days until animals were euthanized for vessel experiments and tissue collection. The minipumps used were capable of delivering relaxin for 14 days and thus tissue collection was within this duration.
Determination of RXFP1 and PPARγ Target Gene Expression: MCA and PA from 4 untreated rats were collected to determine expression level of RXFP1, the primary relaxin receptor, using real-time qPCR methods. We also collected adipose tissue, pial arteries, and PA from vehicle, relaxin and relaxin+GW9662 groups (n=6 for each group) for determination of PPARγ target gene expression. All collected samples were stored in RNase inhibitor (1 unit/μl, RiboLock, Fermentas, Glen Burnie, Md., USA) at −80° C. for comparing expression of fatty acid translocase (FAT)/CD36 and liver X receptors-α (LXRα) for adipose tissue, and plasminogen activator inhibitor-1 (PAI-1) for vasculature. Standard techniques for real-time qPCR were performed by the Vermont Cancer Center DNA analysis facility at the University of Vermont, as described previously Cipolla et al. (2009) Stroke 40, 1451-1457. Briefly, RNA was extracted from tissues and concentration and integrity was determined by a NanoDrop ND-1000 Spectrophotometer (Wilmington, Del.) and an Agilent 2100 Bioanalyzer (Santa Clara, Calif., USA), respectively. Samples with low RNA quality were excluded. cDNA was then made by a SuperScript III Kit (Invitrogen, Carlsbad, Calif., USA). Real-time qPCR was set up as follows: 10 μL Universal PCR Master Mix (Applied Biosystems, Foster City, Calif., USA), 1 μL Assay on Demand (Applied Biosystems), 8 μL water, and 1 μL cDNA. β2-microglobulin (B2M, housekeeping control) and target genes were assessed using Assays on Demand from Applied Biosystems. […] Primers were designed across an exon-exon junction to avoid detecting genomic DNA. Thus, no DNase treatment of samples was necessary. All samples were run in duplicates using a 7900HT Sequence Detection System (Applied Biosystems). […]
Data Calculations and Statistical Analysis: Percent tone was calculated as percent decrease in ID from the passive diameter at each intravascular pressure: [1−(IDactive/IDpassive)]×100%. Outer diameter (OD) was calculated from measured ID and WT: ID+2WT. Cross-sectional area (CSA) of the wall was calculated as: [(OD/2)2−(ID/2)2]×π. Data from qPCR study were analyzed using the −2^ΔΔCT method, as described previously Livak et al. (2001) Methods 25, 402-408. […]

[1] = tested on: parenchymal arterioles (PA); experiment: Pressurized arteriograph: vascular reactivity and structure of PA from relaxin-treated NP Sprague Dawley rats; format: in vivo, rat; conditions: GW9662 10 mg/kg daily in food during relaxin infusion, 5 mmHg
Excerpt: as §1
Vessel Preparation and Pressurized Arteriograph System: After collecting trunk blood, the brain was quickly removed and placed in cold physiological salt solution (PSS). In the first set of experiments, PA between the M1 and M2 region of the MCA territory and the MCA from the same animals were carefully isolated from vehicle- or relaxin-treated animals and mounted on glass cannulas in a dual-chambered arteriograph such that one PA and one MCA from each animal were studied simultaneously. PA were identified as branches off the MCA that penetrated into the brain tissue, as previously described (25). In the second set of experiments, PA from the same brain region as above were dissected from relaxin+GW9662-treated animal and compared to PA from vehicle- and relaxin-treated animals. MCA were not studied in this second set of animals because there was no effect of relaxin on that segment of the vasculature. The proximal cannulas were connected to an in-line pressure transducer and a servo-null pressure control system (Living Systems Instrumentation, Burlington, Vt., USA) that allowed intravascular pressure to be maintained at a set pressure or changed at a variable rate. The distal cannulas were closed during the experiment to avoid flow-mediated responses. Temperature and pH were continuously measured and maintained at 37.0±0.5° C. and 7.40±0.05, respectively. Measurements of inner diameter (ID) and wall thickness (WT) were made via video microscopy (Living Systems Instrumentation).
Vascular Reactivity and Structural Characteristics in PA and MCA: For the first set of experiments, PA and MCA were equilibrated for 1 hour at 25 mmHg, after which myogenic activity was determined by stepwise increases in pressure from 40 to 100 mmHg for PA or 50 to 175 mmHg for MCA. ID and WT were measured at each pressure once stable. Changes in ID and WT were measured in PA only in response to small- (SKCa) and intermediate- (IKCa) conductance calcium-activated potassium channels blockers, apamin (3×10^−7 M) and TRAM-34 (10^−6 M), respectively. PA are unique in that the contribution of endothelium-derived hyperpolarizing factors (EDHF) to tone is greater than most vessels Cipolla et al. (2009) Stroke 40, 1451-1457. Thus, inhibition of SKCa/IKCa channels, a critical component in the EDHF pathway, causes constriction in PA Cipolla et al. (2009) Stroke 40, 1451-1457. We therefore assessed the effect of relaxin on constriction of PA in response to SKCa/IKCa channel inhibition in order to assess this unique pathway. […]

[2] = tested on: parenchymal arterioles (PA); experiment: SKCa/IKCa channel blockers added to isolated pressurized PA; parameters: species or system rat; conditions: apamin 3×10^−7 M, TRAM-34 10^−6 M in the bath
Procedure: Vascular Reactivity and Structural Characteristics in PA and MCA: For the first set of experiments, PA and MCA were equilibrated for 1 hour at 25 mmHg, after which myogenic activity was determined by stepwise increases in pressure from 40 to 100 mmHg for PA or 50 to 175 mmHg for MCA. ID and WT were measured at each pressure once stable. Changes in ID and WT were measured in PA only in response to small- (SKCa) and intermediate- (IKCa) conductance calcium-activated potassium channels blockers, apamin (3×10^−7 M) and TRAM-34 (10^−6 M), respectively. PA are unique in that the contribution of endothelium-derived hyperpolarizing factors (EDHF) to tone is greater than most vessels Cipolla et al. (2009) Stroke 40, 1451-1457. Thus, inhibition of SKCa/IKCa channels, a critical component in the EDHF pathway, causes constriction in PA Cipolla et al. (2009) Stroke 40, 1451-1457. We therefore assessed the effect of relaxin on constriction of PA in response to SKCa/IKCa channel inhibition in order to assess this unique pathway. To obtain structural measurements, ID and WT were recorded at pressures between 5 to 200 mmHg for PA or 5 to 175 mmHg for MCA after papaverine (10^−4 M) and diltiazem (10^−5 M) were added to the bath. For the second set of experiments in which animals were treated with relaxin+GW9662, passive structural measurements were made as described above.

[3] = tested on: parenchymal arterioles (PA); experiment: Pressurized arteriograph: vascular reactivity and structure of PA from female SHR; format: in vivo, rat; conditions: SHR-F-Rln-Axi vs SHR-F-Rln
Procedure: A separate group of SHR-F was used to determine if relaxin crosses the BBB by treating with relaxin (4 μg/hr) for 14 days and measuring relaxin concentration in cerebrospinal fluid (CSF) and serum (SHR-F-Rln-CSF, n=4). For the osmotic pump implant, animals were anesthetized with 3% isoflurane and minipumps implanted subcutaneously in the back of the neck. All animals received post-surgical analgesia (buprenorphine, 50 μg/kg, s.c.). Relaxin infusion was continuous for 14 days until animals were euthanized for isolated vessel experiments and tissue collection.
After collecting trunk blood, the brain was quickly removed and placed in cold physiological salt solution (PSS). PA between the M1 and M2 region of the MCA territory and the MCA from the same animals were carefully isolated from WKY-F, SHR-F, and SHR-F-Rln groups and mounted on glass cannulas. PA were identified as branches off the MCA that penetrated into the brain tissue, as previously described (han, S. L., and Cipolla, M. J. (2011) Relaxin causes selective outward remodeling of brain parenchymal arterioles via activation of peroxisome proliferator-activated receptor-gamma. FASEB J 25, 3229-3239). […] The proximal cannula was connected to an in-line pressure transducer and a servo-null pressure control system (Living Systems Instrumentation, Burlington, Vt., USA) that allowed intravascular pressure to be maintained at a set pressure or changed at a variable rate. The distal cannula was closed during the experiment to avoid flow-mediated responses. Temperature and pH were continuously measured and maintained at 37.0±0.5° C. and 7.40±0.05, respectively. Measurements of inner diameter (ID) and wall thickness (WT) were made via video microscopy (Living Systems Instrumentation, Burlington, Vt.).
PA and MCA were equilibrated for 1 hour, after which myogenic activity was determined by stepwise increases in pressure from 40 to 100 mmHg for PA or 50 to 175 mmHg for MCA. ID and WT were measured at each pressure once stable. Endothelium-dependent dilation was studied by adding NS309 (10^−8-10^−5 M), an activator of small- and intermediate-conductance calcium-activated potassium channels (SKCa, IKCa). NS309 was washed out of the bath and a single concentration of the nitric oxide synthase (NOS) inhibitor L-nitro-n-arginine (L-NNA, 10^−4 M) added to the bath. Constriction to NOS inhibition was used as an additional indicator of endothelial function. In the presence of L-NNA, sodium nitroprusside (SNP, 10^−8-10^−5 M) was added to the bath to assess endothelium-independent vasodilation. To obtain structural measurements, ID and WT were recorded at pressures between 5 to 200 mmHg for PA or 5 to 175 mmHg for MCA in zero-calcium PSS containing ethylene glycol tetra-acetic acid (EGTA) and outer diameter (OD) and distensibility calculated.
Percent tone was calculated as percent decrease in ID from the passive diameter at each intravascular pressure: [1−(IDactive/IDpassive)]×100. Percent reactivity for vasodilators was calculated as ((IDdose−IDstart)/(IDpassive−IDstart))×100. Percent constriction for vasoconstrictor was calculated as (1−(IDdose/IDstart))×100. OD was calculated from measured ID and WT: ID+2WT. Distensibility at a given pressure was calculated as (IDpassive−IDoriginal)/(IDoriginal)×100, where IDoriginal is defined as passive inner diameter determined at lowest pressure (5 mmHg). Data from qPCR study were analyzed using the −2^ΔΔCT method, as described previously (Livak, K. J., and Schmittgen, T. D. (2001) Analysis of relative gene expression data using real-time quantitative PCR and the 2(−Delta Delta C(T)) Method. Methods 25, 402-408). Data were removed when the Ct values of technical replicates differed by more than 0.5.

SMILES: O=C(Nc1ccccc1)c1cc([N+](=O)[O-])ccc1Cl [GW9662, reference compound]
- Relaxin-induced change of CD36 gene expression in adipose tissue (PPARγ target genes): normalized
- Structural changes of PA induced by relaxin [1]: prevented

SMILES: Clc1ccccc1C(c1ccccc1)(c1ccccc1)n1cccn1 [TRAM-34]
- Vasoconstriction of PA [2]: greater vasoconstriction

SMILES: CNC(=O)c1ccccc1Sc1ccc2c(/C=C/c3ccccn3)n[nH]c2c1 [axitinib, reference compound]
- Relaxin-induced increased distensibility of PA [3]: no effect
